Where “and” joins values, the source holds several entries; their conditions need not be identical. Identical values can stand only once. Like-named read-outs stand apart in the source and are kept apart here.
Key:
[1] = target: T1, CDK12–cyclin K and DDB1 (Homo sapiens, UniProt Q16531+Q9NYV4, K965R); assay: TR-FRET ternary complex formation assay (compound titration); type: binding; settings: for TR-FRET signal at compound concentration: replicate titrations
T1 construct: His6–CDK12 (a.a. 713–1,052); full-length or beta-propeller B domain deletion (ΔBPB: a.a. 396–705 deleted) constructs of His6–DDB1ΔBPB, StrepII–Avi–DDB1, or His6–Spy–DDB1; made in house; host or cells: Trichoplusia ni High Five insect cells (baculovirus)
T1 sequence (Q9NYV4 713-1052 K965R): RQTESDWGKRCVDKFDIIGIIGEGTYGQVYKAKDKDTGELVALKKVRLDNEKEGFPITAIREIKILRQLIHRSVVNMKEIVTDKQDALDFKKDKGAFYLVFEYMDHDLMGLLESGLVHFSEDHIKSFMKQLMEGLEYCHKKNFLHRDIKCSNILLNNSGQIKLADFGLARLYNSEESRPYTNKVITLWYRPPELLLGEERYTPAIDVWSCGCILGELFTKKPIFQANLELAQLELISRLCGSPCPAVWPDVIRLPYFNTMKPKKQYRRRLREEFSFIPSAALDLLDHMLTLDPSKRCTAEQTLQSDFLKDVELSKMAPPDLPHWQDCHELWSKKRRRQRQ
T1 sequence (O75909 1-267 partner): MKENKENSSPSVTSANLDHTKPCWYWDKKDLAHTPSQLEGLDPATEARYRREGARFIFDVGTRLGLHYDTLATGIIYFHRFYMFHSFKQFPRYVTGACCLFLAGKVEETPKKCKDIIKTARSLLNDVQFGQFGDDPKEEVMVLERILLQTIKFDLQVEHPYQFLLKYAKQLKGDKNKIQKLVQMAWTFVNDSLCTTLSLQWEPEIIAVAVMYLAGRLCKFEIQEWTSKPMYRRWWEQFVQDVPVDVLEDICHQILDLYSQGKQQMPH
T1 sequence (Q16531 whole entry): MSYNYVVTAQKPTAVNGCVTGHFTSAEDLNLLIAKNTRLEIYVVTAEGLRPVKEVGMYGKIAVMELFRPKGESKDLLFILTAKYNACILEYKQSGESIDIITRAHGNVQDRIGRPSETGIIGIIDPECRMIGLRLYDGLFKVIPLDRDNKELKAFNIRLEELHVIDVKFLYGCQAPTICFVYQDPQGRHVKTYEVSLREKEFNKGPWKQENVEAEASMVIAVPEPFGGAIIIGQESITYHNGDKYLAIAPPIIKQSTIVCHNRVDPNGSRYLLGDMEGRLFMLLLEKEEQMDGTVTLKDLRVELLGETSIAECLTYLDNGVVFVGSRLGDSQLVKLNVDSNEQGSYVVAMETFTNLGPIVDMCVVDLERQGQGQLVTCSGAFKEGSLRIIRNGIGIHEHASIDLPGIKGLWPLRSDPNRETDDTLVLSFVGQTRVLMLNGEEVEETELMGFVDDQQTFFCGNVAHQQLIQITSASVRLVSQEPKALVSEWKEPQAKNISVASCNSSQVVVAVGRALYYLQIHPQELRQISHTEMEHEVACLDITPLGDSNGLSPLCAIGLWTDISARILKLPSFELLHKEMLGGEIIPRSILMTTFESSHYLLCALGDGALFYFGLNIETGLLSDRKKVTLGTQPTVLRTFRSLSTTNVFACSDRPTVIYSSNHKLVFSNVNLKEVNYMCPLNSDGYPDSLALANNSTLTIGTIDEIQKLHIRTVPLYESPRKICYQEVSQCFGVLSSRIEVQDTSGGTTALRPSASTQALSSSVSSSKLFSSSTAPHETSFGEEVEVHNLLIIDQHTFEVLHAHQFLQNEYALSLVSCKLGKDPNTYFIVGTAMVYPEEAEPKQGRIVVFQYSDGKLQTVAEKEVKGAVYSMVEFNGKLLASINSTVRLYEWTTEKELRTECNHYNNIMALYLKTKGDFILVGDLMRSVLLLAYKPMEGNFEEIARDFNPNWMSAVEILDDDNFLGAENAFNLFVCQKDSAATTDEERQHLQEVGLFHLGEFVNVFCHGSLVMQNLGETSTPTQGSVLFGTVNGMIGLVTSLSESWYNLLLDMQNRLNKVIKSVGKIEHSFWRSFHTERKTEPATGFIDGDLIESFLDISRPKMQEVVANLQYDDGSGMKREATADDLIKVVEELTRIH
Source text: A 70 μs delay was employed to reduce background fluorescence. The TR-FRET signal was obtained through calculating the ratio of 520 nm to 490 nm fluorescence, and Prism 9 (GraphPad) was used for further data analysis.

[2] = tested on: cyclin K–eGFP degradation reporter; assay: Cyclin K reporter stability analysis (dual-color cyclin K–eGFP reporter); type: cell-based, human
Method: HEK293T–Cas9 cells expressing the cyclin K–eGFP degradation reporter were resuspended at 1 × 10^6 ml^−1 and 50 µl of cell suspension was seeded in non-cell-culture-treated 384-well plates. Shortly after, cells were treated with drug or DMSO for 5 h. […] The fluorescent signal was quantified by flow cytometry (LSRFortessa flow cytometer, BD Biosciences). Using FlowJo (flow cytometry analysis software, BD Biosciences), the geometric mean of the eGFP and mCherry fluorescent signal for round and mCherry-positive cells was calculated. The ratio of eGFP to mCherry was normalized to the average of three DMSO-treated controls.

[3] = tested on: HEK293T cells; assay: Drug sensitivity assay (CellTiter-Glo viability) with or without MLN4924 pretreatment; type: cell-based, human; settings: Supplementary Table 2; for EC50: Homo sapiens, HEK-293T, HEK293T viability, 72 h, compound alone, read-out: Cellular assays EC50; for Toxicity rescue: MLN4924-mediated cytotoxicity rescue, 10 µM used where n.d.
Method: HEK293T–Cas9 cells were resuspended at 0.15 × 10^6 ml^−1 treated with DMSO or 100 nM MLN4924 and plated on 384-well plates. After 2 h, the indicated drugs were dispensed with a D300 digital dispenser (Tecan). After 3 days of drug exposure, cell viability was assessed using the CellTiter-Glo luminescent assay (Promega, G7572) on an CLARIOstar Plus, MARS 3.4 (BMG LabTech). Cell viabilities were calculated relative to DMSO controls.

[4] = compound concentration 79.2001 nM
[5] = compound concentration 158.4 nM
[6] = compound concentration 309.6 nM
[7] = compound concentration 626.401 nM
[8] = compound concentration 1252.8 nM
[9] = compound concentration 9936.01 nM
[10] = compound concentration 20016 nM
[11] = in vitro complex formation, 50 nM CDK12–cyclin K, 100 nM DDB1, text and figures, read-out: TR-FRET EC50
[12] = sheet MOESM7, read-out: log TR-FRET EC50 (converted)
[13] = Supplementary Table 2, read-out: TR-FRET EC50 TR-FRET
[14] = Supplementary Table 2, HEK293T cycK-eGFP reporter, 5 h, read-out: Cellular assays DC50

TR-FRET signal at compound concentration ([1]; compound concentration 4.68 nM)	TR-FRET signal at compound concentration ([1]; compound concentration 21.6 nM)	TR-FRET signal at compound concentration ([1]; compound concentration 36 nM)	TR-FRET signal at compound concentration [1, 4]	TR-FRET signal at compound concentration [1, 5]	TR-FRET signal at compound concentration [1, 6]	TR-FRET signal at compound concentration [1, 7]	TR-FRET signal at compound concentration [1, 8]	TR-FRET signal at compound concentration ([1]; compound concentration 2448 nM)	TR-FRET signal at compound concentration [1, 9]	TR-FRET signal at compound concentration [1, 10]	EC50 [1, 11] [nM]	EC50 [1, 12] [nM]	EC50 [1, 13] [nM]	TR-FRET signal, individual replicate ([1]; compound concentration 4.68 nM)	TR-FRET signal, individual replicate ([1]; compound concentration 21.6 nM)	TR-FRET signal, individual replicate ([1]; compound concentration 36 nM)	DC50 [2, 14] [nM]	SMILES	EC50 [3] [nM]	Toxicity rescue [3] [%]	other results
0.1674 and 0.1915	0.2669 and 0.3147	0.462 and 0.5388	0.7422 and 0.8389	1.142 and 1.242	1.648 and 1.83	2.134 and 2.344	2.523 and 2.691	2.757 and 2.986	2.985 and 3.212	3.04 and 3.2335	285 ± 19	285						CC[C@H](CO)Nc1nc(NCCCCCc2ccccc2)c2ncn(C(C)C)c2n1 [DS02]	> 10000	0	fold lower affinity than DS11 ([1]; TR-FRET complex formation): 5-10 fold; EC50 ([1]; source data sheet correlations, read-out: TR-FRET EC50): 285 nM; DC50 ([2]; source data sheet correlations, read-out: DC50): 1780 nM
											185 ± 22	185	185	0.1665 and 0.1912	0.2604 and 0.3178	0.4113 and 0.4843	> 10000	CCCCc1ccc(CNc2nc(N[C@H](CC)CO)nc3c2ncn3C(C)C)cc1 [DS03]	> 10000	0	TR-FRET signal, individual replicate [1, 4]: 0.6704 and 0.7869; TR-FRET signal, individual replicate [1, 5]: 0.9573 and 1.072; TR-FRET signal, individual replicate [1, 6]: 1.2282 and 1.396; TR-FRET signal, individual replicate [1, 7]: 1.549 and 1.7468; TR-FRET signal, individual replicate [1, 8]: 1.782 and 2.014; TR-FRET signal, individual replicate ([1]; compound concentration 2448 nM): 1.858 and 2.0804; TR-FRET signal, individual replicate [1, 9]: 1.8943 and 2.138; TR-FRET signal, individual replicate [1, 10]: 1.837 and 2.0323
0.1371 and 0.1443	0.1368 and 0.1484	0.135 and 0.1532	0.1341 and 0.1519	0.132 and 0.1491	0.1322 and 0.1487	0.1292 and 0.1438	0.1234 and 0.1372	0.1186 and 0.1335	0.1139 and 0.1272	0.1066 and 0.1169							> 10000	CC[C@H](CO)Nc1nc(NCc2ccc(-c3ccc(-c4ccccc4)cc3)cc2)c2ncn(C(C)C)c2n1 [DS04]	> 10000	0	DDB1–CDK12 complex formation, result in words ([1]; in vitro TR-FRET): abolished binding

The next lines start with the molecule.

SMILES	TR-FRET signal at compound concentration ([1]; compound concentration 4.68 nM)	TR-FRET signal at compound concentration ([1]; compound concentration 21.6 nM)	TR-FRET signal at compound concentration ([1]; compound concentration 36 nM)	TR-FRET signal at compound concentration [1, 4]	TR-FRET signal at compound concentration [1, 5]	TR-FRET signal at compound concentration [1, 6]	TR-FRET signal at compound concentration [1, 7]	TR-FRET signal at compound concentration [1, 8]	TR-FRET signal at compound concentration ([1]; compound concentration 2448 nM)	TR-FRET signal at compound concentration [1, 9]	TR-FRET signal at compound concentration [1, 10]	EC50 [1, 11] [nM]	EC50 [1, 12] [nM]	EC50 [1, 13] [nM]	TR-FRET signal, individual replicate ([1]; compound concentration 4.68 nM)	TR-FRET signal, individual replicate ([1]; compound concentration 21.6 nM)	TR-FRET signal, individual replicate ([1]; compound concentration 36 nM)	DC50 [2, 14] [nM]	EC50 [3] [nM]	Toxicity rescue [3] [%]	other results
CC[C@H](CO)Nc1nc(NCc2ccc(-c3ccc4ccccc4c3)cc2)c2ncn(C(C)C)c2n1 [DS05]	0.139 and 0.157	0.1423 and 0.1615	0.1531 and 0.1764	0.1718 and 0.1914	0.1925 and 0.2133	0.2424 and 0.278	0.3125 and 0.3604	0.4172 and 0.4741	0.5249 and 0.5984	0.656 and 0.7191	0.5857 and 0.628	936 ± 112	935	935				> 10000	> 10000	0	
CCCCCCCCNc1nc(N[C@H](CC)CO)nc2c1ncn2C(C)C [DS06]												1160	1160		0.1399 and 0.1627 and 0.1459 and 0.1432	0.173 and 0.1922 and 0.1723 and 0.1754	0.2228 and 0.253 and 0.2242 and 0.2297	> 10000	> 10000	0	TR-FRET signal ([1]; compound concentration 4.68 nM): 0.1399 and 0.1627 and 0.1459 and 0.1432; TR-FRET signal ([1]; compound concentration 21.6 nM): 0.173 and 0.1922 and 0.1723 and 0.1754; TR-FRET signal ([1]; compound concentration 36 nM): 0.2228 and 0.253 and 0.2242 and 0.2297; TR-FRET signal [1, 4]: 0.3087 and 0.3318 and 0.3304 and 0.3159; TR-FRET signal, individual replicate [1, 4]: 0.3087 and 0.3318 and 0.3304 and 0.3159; TR-FRET signal [1, 5]: 0.4597 and 0.4851 and 0.4992 and 0.3486; TR-FRET signal, individual replicate [1, 5]: 0.4597 and 0.4851 and 0.4992 and 0.3486; TR-FRET signal [1, 6]: 0.6961 and 0.632 and 0.7161 and 0.7436; TR-FRET signal, individual replicate [1, 6]: 0.6961 and 0.632 and 0.7161 and 0.7436; TR-FRET signal [1, 7]: 0.9481 and 0.8335 and 0.9996 and 0.9936; TR-FRET signal, individual replicate [1, 7]: 0.9481 and 0.8335 and 0.9996 and 0.9936; TR-FRET signal [1, 8]: 1.125 and 0.8632 and 1.358 and 1.356; TR-FRET signal, individual replicate [1, 8]: 1.125 and 0.8632 and 1.358 and 1.356; TR-FRET signal ([1]; compound concentration 2448 nM): 1.642 and 1.809 and 1.711 and 1.743; TR-FRET signal, individual replicate ([1]; compound concentration 2448 nM): 1.642 and 1.809 and 1.711 and 1.743; TR-FRET signal [1, 9]: 2.02 and 2.174 and 2.025 and 2.055; TR-FRET signal, individual replicate [1, 9]: 2.02 and 2.174 and 2.025 and 2.055; TR-FRET signal [1, 10]: 2.092 and 2.228 and 2.285 and 2.284; TR-FRET signal, individual replicate [1, 10]: 2.092 and 2.228 and 2.285 and 2.284
CC[C@H](CO)Nc1nc(NCc2ccc(CN(C)C)cc2)c2ncn(C(C)C)c2n1 [DS07]													285	285	0.1397 and 0.1571	0.1381 and 0.1543	0.1446 and 0.1595	> 10000	> 10000	0	TR-FRET signal, individual replicate [1, 4]: 0.1442 and 0.1633; TR-FRET signal, individual replicate [1, 5]: 0.1697 and 0.1741; TR-FRET signal, individual replicate [1, 6]: 0.1833 and 0.1813; TR-FRET signal, individual replicate [1, 7]: 0.2131 and 0.2; TR-FRET signal, individual replicate [1, 8]: 0.2455 and 0.2204; TR-FRET signal, individual replicate ([1]; compound concentration 2448 nM): 0.2509 and 0.2343; TR-FRET signal, individual replicate [1, 9]: 0.2701 and 0.2518; TR-FRET signal, individual replicate [1, 10]: 0.2482 and 0.2271

From paper PMC10746543, “Design principles for cyclin K molecular glue degraders” (Nature Chemical Biology, 2023)
